Results reported in publication PMC9268013, “Design, Synthesis, and Biological Evaluation of N14-Amino Acid-Substituted Tetrandrine Derivatives as Potential Antitumor Agents against Human Colorectal Cancer” (Molecules, 2022).

Legend:
[1] = system: human liver cancer cells (HepG2); assay: MTT antiproliferative assay, HepG2; assay type: cell-based; conditions: Homo sapiens, HepG2, 72 h
Method: (§1) Human lung cancer cell (A549,), human umbilical vein endothelial cells (HUVECs,), human colon cancer cell lines (HCT-15), human breast cancer cells (MCF-7), human liver cancer cells (HepG2), human pancreatic cancer cells (BxPC-3), and human hepatic cell line (L-02) were obtained from the Sichuan University. A549, HUVECs, and L-02 were cultured in DMEM medium (high glucose, HyClone, GE Healthcare, Sydney, Australia). Human colon cancer cell lines HCT-15, human pancreatic cancer cells […] BxPC-3 were cultured in RPMI-1640. Human breast cancer cells MCF-7 and human liver cancer cells HepG2 were cultured in MEM medium. All the mediums, including 10% fetal bovine serum (FBS, HyClone, GE Healthcare, Sydney, Australia) and 1% ampicillin/streptomycin, were used to culture the above cells at 37 °C in a humidified atmosphere (5% CO2 and 95% air).
(§2) The antiproliferative activity of the title compounds was determined using the MTT (3-(4,5-dimethylthiazol-2-yl)-2,5-diphenyltetrazolium bromide, Sigma-Aldrich, Saint Louis, MO, USA) assay on different cells. Cells lines were seeded into 96-well plates at a density of 2000 to 6000 cells/well. DMSO was used to dissolve the test compounds, and TET was used as a positive control. After 24 h, the test compounds were added at different concentrations (0.625, 1.25, 2.5, 5, 10, and 20 μM) and incubated at 37 °C for 72 h. MTT was added to each well at a final concentration of 0.5 mg/mL and incubated at 37 °C for 4 h. Then, 150 μL of DMSO was added to each well to dissolve the formazan crystals. The absorbance was measured at 570 nm by a microplate reader (ELX800UV, Bio-Tek, Windoski, VT, USA). All measurements were repeated at least three times under the same conditions. Graphpad Prism 8.0 was used to calculate the IC50 values.

[2] = system: human umbilical vein endothelial cells (HUVEC); assay: MTT antiproliferative assay, HUVEC; assay type: cell-based; conditions: 72 h
Method: as §1, §2

[3] = system: human lung cancer cells (A549); assay: MTT antiproliferative assay, A549; assay type: cell-based; conditions: Homo sapiens, A549, 72 h
Method: as §1, §2

[4] = system: human pancreatic cancer cells (BxPC-3); assay: MTT antiproliferative assay, BxPC-3; assay type: cell-based; conditions: Homo sapiens, BXPC-3, 72 h
Method: as §1, §2

[5] = system: human normal hepatocyte cells (L-02); assay: MTT toxicity assay, normal hepatocytes L-02; assay type: cell-based; conditions: 72 h, normal hepatocyte L-02 (toxicity), read-out: Antiproliferative Activity (IC50/μM) L-02
Method: as §1, §2

[6] = system: human colon cancer cells (HCT-15); assay: MTT antiproliferative assay, HCT-15; assay type: cell-based; conditions: for Improvement of antiproliferative activity compared with TET: HCT-15 cells, vs TET (IC50 = 6.12 μM); for IC50: Homo sapiens, MTT, 72 h, HCT-15
Method: as §1, §2

[7] = system: human breast cancer cells (MCF-7); assay: MTT antiproliferative assay, MCF-7; assay type: cell-based; conditions: Homo sapiens, MCF7, 72 h
Method: as §1, §2

[8] = Aqueous solubility determination by HPLC; assay type: physicochemical; conditions: neutral water
Method: Briefly, each tested compound (10 mg) was dissolved in 10 mL of CH3OH, and the standard solution (0.5 mL) was used to determine the wavelength of maximum absorbance by HPLC. The solution was diluted as necessary, and the solubility was determined by linear regression with R^2 > 0.999. Each tested compound (5 mg) was ultrasound dissolved in 3 mL of pure water for 1 h at room temperature, and the mixture was then […] at 3000 rpm for 15 min. The saturated supernatants were determined by HPLC at the wavelength of the maximum absorption, and the absorbances were obtained. The solubility was calculated according to the standard curve.

HCT-15 cells = assay: Flow cytometry Annexin V-FITC/PI apoptosis analysis; assay type: cell-based, human; conditions: HCT-15, TET treatment groups (1.25, 2.5, 5 μM), 48 h
Method: HCT-15 cells were cultured in complete medium in six-well plates for 24 h, and […]. 2.5, 5 μM of 16 was added in triplicate for 48 h incubation. The cells were digested with trypsin without EDTA, washed twice with cold PBS, and resuspended in 500 μL binding buffer. The cell suspension was stained successively with 5 μL Annexin V-FITC and 5 μL PI (Keygen Biotech, Nanjing, China), and cultured for 15 min and 5 min in total dark, respectively. Afterwards, the percentages of apoptotic cells were determined by a flow cytometry. Data were analyzed by FlowJo software (Version 10, FlowJo, LLC, Ashland, OR, USA).

| SMILES | IC50 [1] [µM] | IC50 [3] [µM] | IC50 [4] [µM] | IC50 [6] [µM] | IC50 [7] [µM] | Increase of aqueous solubility compared to TET ([8]; vs TET) | IC50 [2] [µM] | IC50 [5] [µM] | Improvement of antiproliferative activity compared with TET [6] | Percentage of apoptotic cells (HCT-15 cells) | solubility at 1 h ([8]; pure water, thermodynamic from solid, room temperature, HPLC) [µg/mL] |
| --- | --- | --- | --- | --- | --- | --- | --- | --- | --- | --- | --- |
| COc1cc(NC(=O)[C@H](CO)NC(=O)OC(C)(C)C)c2cc1Oc1ccc(cc1)C[C@H]1c3cc(c(OC)cc3CCN1C)Oc1c(OC)c(OC)cc3c1[C@H](C2)N(C)CC3 [Compound 8, 14-N-(Boc-L-serine)-tetrandrine] | 3.76 ± 1.34 | 7.45 ± 0.32 | 3.55 ± 0.32 | 5.87 ± 0.3 | 5.84 ± 0.25 |  | 3.96 ± 0.36 | > 20 |  |  |  |
| COc1cc(NC(=O)[C@@H](NC(=O)OC(C)(C)C)[C@@H](C)O)c2cc1Oc1ccc(cc1)C[C@H]1c3cc(c(OC)cc3CCN1C)Oc1c(OC)c(OC)cc3c1[C@H](C2)N(C)CC3 [Compound 9] | 6.97 ± 0.34 | 12.3 ± 0.61 | 13.1 ± 0.37 | 8.57 ± 0.57 | 11.3 ± 0.55 |  | 4.91 ± 1.05 | > 20 |  |  |  |
| COc1cc(NC(=O)[C@@H](N)[C@@H](C)O)c2cc1Oc1ccc(cc1)C[C@H]1c3cc(c(OC)cc3CCN1C)Oc1c(OC)c(OC)cc3c1[C@H](C2)N(C)CC3 [Compound 18, 14-N-(L-threonine)-tetrandrine] | 3.57 ± 0.67 | 6.81 ± 1.1 | 5.6 ± 0.38 | 5.28 ± 0.37 | 10.2 ± 0.4 |  | 3.25 ± 0.69 | > 20 |  |  |  |
| COc1cc(NC(=O)[C@H](C)NC(=O)OC(C)(C)C)c2cc1Oc1ccc(cc1)C[C@H]1c3cc(c(OC)cc3CCN1C)Oc1c(OC)c(OC)cc3c1[C@H](C2)N(C)CC3 [Compound 4] | 3.9 ± 0.62 | 7.44 ± 1.11 | 4.74 ± 0.37 | 3.28 ± 0.32 | 5.78 ± 0.35 |  | 4.01 ± 0.41 | > 20 |  |  |  |
| COc1cc(NC(=O)[C@H]2CCCN2C(=O)OC(C)(C)C)c2cc1Oc1ccc(cc1)C[C@H]1c3cc(c(OC)cc3CCN1C)Oc1c(OC)c(OC)cc3c1[C@H](C2)N(C)CC3 [Compound 7, 14-N-(Boc-L-proline)-tetrandrine] | 3.5 ± 1.37 | 6.4 ± 0.36 | 3.1 ± 0.26 | 1.15 ± 0.17 | 5.71 ± 0.29 |  | 3.49 ± 0.31 | 17.5 ± 0.21 |  |  |  |
| COc1cc(NC(=O)[C@@H](NC(=O)OC(C)(C)C)C(C)C)c2cc1Oc1ccc(cc1)C[C@H]1c3cc(c(OC)cc3CCN1C)Oc1c(OC)c(OC)cc3c1[C@H](C2)N(C)CC3 [Compound 5] | 3.54 ± 0.3 | 7.24 ± 0.41 | 4.63 ± 0.09 | 4.31 ± 0.09 | 7.4 ± 0.31 |  | 3.04 ± 0.34 | > 20 |  |  |  |
| COc1ccc2cc1Oc1ccc(cc1)C[C@H]1c3cc(c(OC)cc3CCN1C)Oc1c(OC)c(OC)cc3c1[C@H](C2)N(C)CC3 [TET, tetrandrine] | 3.25 ± 0.11 | 6.39 ± 0.83 | 7.6 ± 0.16 | 6.12 ± 0.51 | 3.9 ± 0.47 |  | 3.62 ± 0.02 | 16 ± 1.18 |  | lower than 14% | < 30 |
| COc1cc(NC(=O)[C@@H](N)CC(C)C)c2cc1Oc1ccc(cc1)C[C@H]1c3cc(c(OC)cc3CCN1C)Oc1c(OC)c(OC)cc3c1[C@H](C2)N(C)CC3 [Compound 15, 14-N-(L-leucine)-tetrandrine] | 3.66 ± 0.82 | 5.92 ± 0.73 | 4.55 ± 0.27 | 2.71 ± 0.22 | 6.74 ± 0.16 |  | 3.09 ± 0.36 | 12.08 ± 0.04 |  |  |  |

The next lines start with results.

| IC50 [1] [µM] | IC50 [3] [µM] | IC50 [4] [µM] | IC50 [6] [µM] | IC50 [7] [µM] | Increase of aqueous solubility compared to TET ([8]; vs TET) | SMILES | IC50 [2] [µM] | IC50 [5] [µM] | Improvement of antiproliferative activity compared with TET [6] | Percentage of apoptotic cells (HCT-15 cells) | solubility at 1 h ([8]; pure water, thermodynamic from solid, room temperature, HPLC) [µg/mL] |
| --- | --- | --- | --- | --- | --- | --- | --- | --- | --- | --- | --- |
| 1.54 ± 0.02 | 1.96 ± 0.24 | 2.31 ± 0.08 | 0.91 ± 0.05 | 2.59 ± 0.11 |  | COc1cc(NC(=O)[C@@H](Cc2ccccc2)NC(=O)OC(C)(C)C)c2cc1Oc1ccc(cc1)C[C@H]1c3cc(c(OC)cc3CCN1C)Oc1c(OC)c(OC)cc3c1[C@H](C2)N(C)CC3 [Compound 10] | 1.8 ± 0.02 | 15.54 ± 0.11 | more than 6 fold |  |  |
| 1.44 ± 0.18 | 4.12 ± 0.27 | 2.36 ± 0.15 | 3.33 ± 0.08 | 3.7 ± 0.91 |  | COc1cc(NC(=O)[C@@H](N)Cc2ccc(O)cc2)c2cc1Oc1ccc(cc1)C[C@H]1c3cc(c(OC)cc3CCN1C)Oc1c(OC)c(OC)cc3c1[C@H](C2)N(C)CC3 [Compound 20, 14-N-(L-tyrosine)-tetrandrine] | 1.91 ± 0.09 | 10 ± 1.28 |  |  |  |
| 1.71 ± 0.46 | 2.67 ± 0.14 | 1.75 ± 0.13 | 3.39 ± 0.07 | 3.31 ± 0.01 |  | COc1cc(NC(=O)[C@H](N)Cc2ccccc2)c2cc1Oc1ccc(cc1)C[C@H]1c3cc(c(OC)cc3CCN1C)Oc1c(OC)c(OC)cc3c1[C@H](C2)N(C)CC3 [Compound 19] | 1.92 ± 0.17 | 9.02 ± 0.26 |  |  |  |
| 3.13 ± 0.7 | 7.44 ± 1.02 | 3.67 ± 0.19 | 3.94 ± 0.37 | 7.53 ± 0.11 |  | COc1cc(NC(=O)[C@@H](N)CO)c2cc1Oc1ccc(cc1)C[C@H]1c3cc(c(OC)cc3CCN1C)Oc1c(OC)c(OC)cc3c1[C@H](C2)N(C)CC3 [Compound 17, 14-N-(L-serine)-tetrandrine] | 2.88 ± 0.26 | > 20 |  |  |  |
| 1.94 ± 0.27 | 2.15 ± 0.17 | 2.55 ± 0.03 | 2.42 ± 0.06 | 2.91 ± 0.17 | approximately 16 fold | COc1cc(NC(=O)CNC(=O)OC(C)(C)C)c2cc1Oc1ccc(cc1)C[C@H]1c3cc(c(OC)cc3CCN1C)Oc1c(OC)c(OC)cc3c1[C@H](C2)N(C)CC3 [Compound 3, 14-N-(Boc-L-glycine)-tetrandrine] | 1.68 ± 0.21 | 8.59 ± 0.13 | about 2 fold |  |  |
| 3.26 ± 0.05 | 6.11 ± 0.91 | 4.95 ± 0.29 | 4.02 ± 0.15 | 7.96 ± 1.08 |  | COc1cc(NC(=O)[C@@H](N)C(C)C)c2cc1Oc1ccc(cc1)C[C@H]1c3cc(c(OC)cc3CCN1C)Oc1c(OC)c(OC)cc3c1[C@H](C2)N(C)CC3 [Compound 14, 14-N-(L-valine)-tetrandrine] | 2.48 ± 0.15 | 14.5 ± 0.37 |  |  |  |
| 3.27 ± 1 | 8.12 ± 0.43 | 6.95 ± 0.57 | 4.69 ± 0.47 | 11.1 ± 0.26 |  | COc1cc(NC(=O)[C@H](C)N)c2cc1Oc1ccc(cc1)C[C@H]1c3cc(c(OC)cc3CCN1C)Oc1c(OC)c(OC)cc3c1[C@H](C2)N(C)CC3 [Compound 13] | 2.2 ± 0.37 | > 20 |  |  |  |
| 3.11 ± 0.68 | 5.54 ± 0.16 | 6.39 ± 0.2 | 3.89 ± 0.47 | 4.99 ± 0.66 |  | COc1cc(NC(=O)[C@H](CC(C)C)NC(=O)OC(C)(C)C)c2cc1Oc1ccc(cc1)C[C@H]1c3cc(c(OC)cc3CCN1C)Oc1c(OC)c(OC)cc3c1[C@H](C2)N(C)CC3 [Compound 6] | 2.09 ± 0.19 | 13.58 ± 0.13 |  |  |  |
| 2.81 ± 0.35 | 6.26 ± 0.41 | 3.58 ± 0.15 | 3.56 ± 0.27 | 5.03 ± 0.04 |  | COc1cc(NC(=O)[C@H](Cc2ccc(O)cc2)NC(=O)OC(C)(C)C)c2cc1Oc1ccc(cc1)C[C@H]1c3cc(c(OC)cc3CCN1C)Oc1c(OC)c(OC)cc3c1[C@H](C2)N(C)CC3 [Compound 11, 14-N-(Boc-L-tyrosine)-tetrandrine] | 2.16 ± 0.32 | 11.8 ± 0.61 |  |  |  |
| 3.19 ± 0.76 | 4.94 ± 0.45 | 3.98 ± 0.16 | 3.54 ± 0.36 | 6.91 ± 0.66 |  | COc1cc(NC(=O)CN)c2cc1Oc1ccc(cc1)C[C@H]1c3cc(c(OC)cc3CCN1C)Oc1c(OC)c(OC)cc3c1[C@H](C2)N(C)CC3 [Compound 12, 14-N-(L-glycine)-tetrandrine] | 3.19 ± 0.61 | > 20 |  |  |  |
